Where “and” joins values, the source holds several entries; their conditions need not be identical. Identical values can stand only once. Entries after “also recorded” stand apart in the source; their conditions may differ.
Legend:
SHRs [1] = test: Telemetric monitoring of conscious SHRs during dobutamine infusion; type: in vivo, rat (SHR)
Experimental: Two days after catherization of the jugular vein, control values were taken and 1 mg/kg β1-AS-ODN was injected. 48 hr later, rats were tested for the effect of β1-AS-ODN. The rats were allowed to recover until all the cardiovascular parameters returned to control values. […] For β1-stimulation, SHRs were infused with dobutamine (β1-selective agonist) through a jugular vein catheter at 5, 10, 20, and 40 μg·kg^−1·min.^−1. Each dose was given for 5 min. continuously and at 1-hr intervals until all the cardiovascular parameters returned to baseline values so as to avoid the effect of tachyphylaxis. BP and HR were sampled every 1 min. dP/dtmax was calculated from the slope of the rising pulse-pressure curve and determined every 1 min. The difference between values at each dose and baseline was denoted as Δ.
Two days after catheterization of jugular vein, control values were taken and 1 mg/kg β1-AS-ODN was injected. Forty-eight hr later, rats were tested for the effect of β1-AS-ODN. The rats were allowed to recover until all the cardiovascular parameters returned to control values. […] For β1-stimulation, SHR were infused with dobutamine (β1-selective agonist) through jugular vein catheter at 5, 10, 20, 40 μg/kg/min. Each dose was given for 5 min continuously and at 1-hr intervals until all cardiovascular parameters returned to baseline so as to avoid the effect of tachyphylaxis. BP and HR were sampled every min. dP/dtmax was calculated from the slope of the rising pulse pressure curve and determined every min. The difference between values at each dose and baseline was denoted as Δ.

SHRs [2] = type: in vivo, rat (SHR)
Experimental: (§1) Each rat cage was placed on a receiver (RLA 1020, Data Sciences, St. Paul, Minn.) for measurement of cardiovascular parameters. Data were collected with a computer-based data acquisition program (Dataquest Lab-PRO3.0; Data Sciences). BP and HR were measured every 10 min. and averaged every 1 to 24 hrs. Before treatment, SHRs were monitored for a week to get a stable baseline.
as §1, with “(RLA1020,” for “(RLA 1020,”, “Sciences)” for “Sciences, St. Paul, Minn.)”, “LabPRO3.0;” for “Lab-PRO3.0;”, “min” for “min.”, “hr.” for “hrs.”, “SHR” for “SHRs”

isolated rat heart = test: Isolated perfused heart model, myocardial ischemia-reperfusion; type: in vivo, Sprague-Dawley rats; details: 2 mg/kg 6 hr before
Experimental: Male Sprague-Dawley rats weighing 200-250 g were injected intravenously with either AS-ODNs (n=7) or IN-ODNs (n=7) at a dose of 200 μg/rat 4 days before excising the hearts. DOTAP/DOPE liposomes (700 μg/rat) were given along with ODNs.
The hearts were excised rapidly and placed in ice-cold Kreb-Henseleit buffer (mmol/L: NaCl 118, KCl 4.7, KH2PO4 1.2, MgSO4 1.2, CaCl2 1.25, NaHCO3 25, and glucose 11, pH 7.4). Within one min, the hearts were transferred to an isolated perfusion apparatus and perfused via the aorta with oxygen-saturated (95% O2+5% CO2) Kreb-Henseleit buffer kept at 37° C. with the use of a MasterFlex pump (model 7015-21, Cole-Palmer Instrument Co.) according to the modified Langendroff procedure (Yang et al., 1998; Neely and Rovetto, 1975). The heart was placed in a semi-closed circulating water-warmed (37° C.) air chamber, paced atrially with a Medtronic 5320 pacemaker at a rate of 300 bpm, and perfused at a constant flow (5.5-6.0 ml/per min). Coronary perfusion pressure (CPP) was measured via a catheter placed just proximal to the aorta and connected to a Gould Statham P23ID pressure transducer. A latex balloon filled with water and connected to a Gould Statham P23ID pressure transducer was inserted in the left ventricle through the left atrium to measure left ventricular end-diastolic pressure (LVEDP), left ventricular systolic pressure (LVSP), and developed left ventricular pressure (dLVP) (dLVP=LVSP−LVEDP). LVEDP during equilibration was set at 5 to 7 mmHg. All measurements were continuously recorded on a 4-channel record (Astro-Med).
Six hearts from saline-treated rats were continuously perfused with Kreb-Henseleit buffer for 80 min and served as sham control. Hearts from other rats, after 20 min of equilibration, were subjected to 30 min of ischemia followed by 30 min of reperfusion. After completion of the study, hearts were frozen in liquid-nitrogen for β1-AR analysis by binding assay, β1-AR protein analyses by Western blot, β1-AR mRNA analysis by reverse transcription-polymerase chain reaction (RT-PCR™), and measurement of MDA.
The protective effects of β1-AS-ODNs were tested in a rat model of myocardial ischemia-reperfusion. Five groups of SD rats were studied. Sham controls (n=6) were injected with saline and perfused continuously for 80 min without ischemia/reperfusion (I/R). In other groups, hearts were perfused for 20 min and subjected to global ischemia (30 min) followed by reperfusion (30 min). […] AS-ODN+I/R (n=7) or INV-ODN+I/R (n=7) were injected iv. with 1 mg/kg β1-AS-ODN or INV-ODN 4 days before the I/R study was performed.

MDA (lipid peroxidation) = test: MDA levels in myocardium after ischemia-reperfusion; type: in vivo, Sprague-Dawley rats; details: pretreatment before ischemia-reperfusion; vs saline
Experimental: Malondialdehyde (MDA) levels in myocardium were measured in duplicate by a modification of the method of Ohkawa et al., (1979). Briefly, the ventricular tissues were homogenized. The assay mixture consisted of 0.1 ml of the tissue homogenate, 0.4 ml of 0.9% NaCl, 0.5 ml of 3% sodium dodecylsulfate, 3 ml of TBA (thiobarbituric acid reagent, containing equal parts of 0.8% aqueous thiobarbituric acid and acetic acid) and was heated for 75 min at 95° C. Thereafter, 1 ml cold 0.9% NaCl was added to the mixture, which was cooled and extracted with 5 ml n-butanol. After centrifugation at 3,000 rpm for 15 min, the butanol phase was assayed spectrophotometrically at 532 nm. Tetramethoxypropane (in amounts of 0, 0.1, 0.2, 0.4, 0.8, 1.0 nmole) served as external standard. MDA levels in myocardium were expressed in μmol/g tissue.

β1-AR protein = test: Western blot of β1-AR protein in myocardium; type: in vivo, Sprague-Dawley rats; details: Western analysis
Experimental: Myocardial tissues were homogenized and lysed in boiling lysis buffer (1% SDS, 0.1% Triton X-100®, and 10 mmol/L Tris-HCl, pH 7.4) and centrifuged at 10,000 RPM for 30 minutes at 4° C. The lysate protein from myocardial tissues (20 μg/lane) was separated by 8% SDS-PAGE using a Bio-Rad Mini-Protean cell, transferred to nitrocellulose membrane (Amersham). After incubation in blocking solution (4% non-fat milk, Sigma), membranes were incubated with 1:1000 dilation primary antibody (polycolonal antibody to β1-AR, Santa Cruz Biotechnology) for overnight at 4° C. Membranes were washed and incubated with 1:2000 dilution second antibody (Amersham) for one hr. The membranes were detected with the ECL system, as described previously (Yang et al, 1998; Li et al., 1999).

β1-AR mRNA = test: RT-PCR of β1-AR mRNA in myocardium; type: in vivo, Sprague-Dawley rats; details: adjusted for GAPDH
Experimental: Total RNA was isolated from rat myocardium with the single step acid-guanidinum thiocyanate-phenol-chloroform method and quantified (Chomcznski and Sacchi, 1987). One μg of total RNA was reverse transcribed with oligo-dT (Promega) and M-MLV reverse transcriptase (Promega) at 37° C. for one hr. 1.5 μl of RT material was amplified with Taq DNA polymerase (Promega) using a primer pair specific to β1-AR:
PCR™ product was 432 base pairs. For PCR, 35 cycles were used at 95° C. for one minute, 60° C. for one minute, and 72° C. for one min. The RT-PCR™ amplified samples were visualized on 1.8% agarose gels using ethidium bromide. A primer pair of rat GAPDH was used as control:
For PCR™, 35 cycles were used at 95° C. for one min, 60° C. for one min, 72° C. for one min. PCR™ product was 504 base pairs. Relative intensity of bands of interest were analyzed by NSF-300G Scanner (Microtek) (Yang et al., 1998; Li et al., 1999).

bradycardia (SHRs [2]; rat, in vivo)	SMILES	effect on SBP (SHRs [1]; higher infusion speed)	elevation of SBP (SHRs [1]; low infusion speed)	basal (resting) HR (SHRs [1]; 1 mg/kg, control 365±8)	time until inotropic and chronotropic effects of dobutamine returned to control levels (SHRs [1]; after 1 mg/kg administration)	duration of hypotensive effect (SHRs [2]; 1 mg/kg i.v.)	onset of hypotensive effect after injection (SHRs [2]; 1 mg/kg i.v.)	duration of action (SHRs [2]; comparison with β1-AS-ODN)	increase in CPP and LVEDP induced by ischemia-reperfusion (isolated rat heart)	ischemia-reperfusion-induced change in LVSP and dLVP (isolated rat heart)	increase in MDA levels in the myocardium (MDA (lipid peroxidation))	ischemia-reperfusion-mediated increase in β1-AR protein expression (β1-AR protein)	increase of mRNA for β1-AR in myocardium (β1-AR mRNA)
	CC(CCc1ccc(O)cc1)NCCc1ccc(O)c(O)c1 (stereo not shown) [Dobutamine, dobutamine]	reduced SBP; also recorded: reduced SPB	5 to 8 mm Hg and 5-8 mm Hg										
appreciable bradycardia	CC(C)NCC(O)COc1ccc(CC(N)=O)cc1 (stereo not shown) [atenolol, reference compound]			295±12 bpm	≤ 24 h	10 h	20 min	less than 1 day	reduced the increase	modestly attenuated	attenuated the increase	no effect	not significantly affected
